Data from paper PMC6545112 (Journal of medicinal chemistry, 2018).
“Also recorded” adds a separate entry of the source. Read-outs that look alike come from different tables or passages of the source.

How the values were obtained:
RS4;11 cell line = assay: cell growth inhibition, WST-8 assay, RS4; assay type: cell-based, human; settings: for IC50: read-out: IC50 (nM) in inhibition of cell growth in the RS4;11 cell line, 4 days, WST-8 assay
[1] = target: MDM2 and p53 proteins in RS4;11 cells (Homo sapiens, UniProt Q00987); assay: western blotting analysis of MDM2 and p53 proteins in RS4; assay type: cell-based; settings: 2 h treatment; for effect on MDM2 and p53 protein levels (western blotting): RS4;11 cells
MDM2 and p53 proteins in RS4;11 cells, sequence (Q00987 whole entry): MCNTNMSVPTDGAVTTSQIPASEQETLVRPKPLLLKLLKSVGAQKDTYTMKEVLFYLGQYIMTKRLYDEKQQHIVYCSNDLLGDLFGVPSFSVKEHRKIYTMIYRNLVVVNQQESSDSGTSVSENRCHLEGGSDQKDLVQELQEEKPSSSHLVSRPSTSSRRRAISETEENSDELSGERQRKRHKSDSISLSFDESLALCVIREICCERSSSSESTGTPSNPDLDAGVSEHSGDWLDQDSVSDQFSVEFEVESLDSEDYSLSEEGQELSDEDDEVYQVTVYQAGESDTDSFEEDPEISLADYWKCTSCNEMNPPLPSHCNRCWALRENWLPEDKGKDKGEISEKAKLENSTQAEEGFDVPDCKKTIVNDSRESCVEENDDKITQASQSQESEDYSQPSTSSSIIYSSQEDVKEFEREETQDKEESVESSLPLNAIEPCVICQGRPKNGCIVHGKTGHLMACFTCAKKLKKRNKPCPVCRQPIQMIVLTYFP

Molecule | effect on MDM2 and p53 protein levels (western blotting) [1] | also measured
O=C1CCC(N2C(=O)c3cccc(NCCCCNC(=O)c4ccc(NC(=O)[C@@H]5NC6(CCCCC6)[C@@]6(C(=O)Nc7cc(Cl)ccc76)[C@H]5c5cccc(Cl)c5F)cc4)c3C2=O)C(=O)N1 (some centres unmarked) [Compound 1, (3’R,4’S,5’R)-6”-Chloro-4’-(3-Chloro-2-fluorophenyl)-N-(4-((4-((2-(2,6-dioxopiperidin-3-yl)-1,3-dioxoisoindolin-4-yl)amino)butyl)carbamoyl)phenyl)-2”-oxodispiro[cyclohexane-1,2’-pyrrolidine-3’,3”-indoline]-5’-carboxamide] | effectively reduce the level of MDM2 protein | times more potent than MI-1061 and MI-1242 in inhibition of cell growth (RS4;11 cell line; RS4;11): about 10 times; concentration that reduces/depletes MDM2 protein ([1]; RS4;11 / leukemia cells): 3 nM
O=C1CCC(N2C(=O)c3cccc(NCCOCCOCCNC(=O)c4ccc(NC(=O)[C@@H]5NC6(CCCCC6)[C@@]6(C(=O)Nc7cc(Cl)ccc76)[C@H]5c5cccc(Cl)c5F)cc4)c3C2=O)C(=O)N1 (some centres unmarked) [Compound 2, (3’R,4’S,5’R)-6”-Chloro-4’-(3-Chloro-2-fluorophenyl)-N-(4-((2-(2-(2-((2-(2,6-dioxopiperidin-3-yl)-1,3-dioxoisoindolin-4-yl)amino)ethoxy)ethoxy)-ethyl)carbamoyl)phenyl)-2”-oxodispiro[cyclohexane-1,2’-pyrrolidine-3’,3”-indoline]-5’-carboxamide] | effectively reduce the level of MDM2 protein; also recorded: effectively induce degradation of MDM2 and accumulation of p53 | times more potent than MI-1061 and MI-1242 in inhibition of cell growth (RS4;11 cell line; RS4;11): about 10 times
O=C1CCC(N2C(=O)c3cccc(NCCNC(=O)c4ccc(NC(=O)[C@@H]5NC6(CCCCC6)[C@@]6(C(=O)Nc7cc(Cl)ccc76)[C@H]5c5cccc(Cl)c5F)cc4)c3C2=O)C(=O)N1 (some centres unmarked) [Compound 4, (3’R,4’S,5’R)-6”-Chloro-4’-(3-Chloro-2-fluorophenyl)-N-(4-((2-((2-(2,6-dioxopiperidin-3-yl)-1,3-dioxoisoindolin-4-yl)amino)ethyl)carbamoyl)phenyl)-2”-oxodispiro[cyclohexane-1,2’-pyrrolidine-3’,3”-indoline]-5’-carboxamide] | induce degradation of MDM2 and accumulation of p53 | –
O=C1CCC(N2C(=O)c3cccc(NCCCNC(=O)c4ccc(NC(=O)[C@@H]5NC6(CCCCC6)[C@@]6(C(=O)Nc7cc(Cl)ccc76)[C@H]5c5cccc(Cl)c5F)cc4)c3C2=O)C(=O)N1 (some centres unmarked) [Compound 5, (3’R,4’S,5’R)-6”-Chloro-4’-(3-Chloro-2-fluorophenyl)-N-(4-((3-((2-(2,6-dioxopiperidin-3-yl)-1,3-dioxoisoindolin-4-yl)amino)propyl)carbamoyl)phenyl)-2”-oxodispiro[cyclohexane-1,2’-pyrrolidine-3’,3”-indoline]-5’-carboxamide] | induce degradation of MDM2 and accumulation of p53 | –
O=C1CCC(N2C(=O)c3cccc(NCCCCCNC(=O)c4ccc(NC(=O)[C@@H]5NC6(CCCCC6)[C@@]6(C(=O)Nc7cc(Cl)ccc76)[C@H]5c5cccc(Cl)c5F)cc4)c3C2=O)C(=O)N1 (some centres unmarked) [Compound 6, (3’R,4’S,5’R)-6”-Chloro-4’-(3-Chloro-2-fluorophenyl)-N-(4-((5-((2-(2,6-dioxopiperidin-3-yl)-1,3-dioxoisoindolin-4-yl)amino)pentyl)carbamoyl)phenyl)-2”-oxodispiro[cyclohexane-1,2’-pyrrolidine-3’,3”-indoline]-5’-carboxamide] | induce degradation of MDM2 and accumulation of p53 | –
O=C1CCC(N2C(=O)c3cccc(NCCCCCCNC(=O)c4ccc(NC(=O)[C@@H]5NC6(CCCCC6)[C@@]6(C(=O)Nc7cc(Cl)ccc76)[C@H]5c5cccc(Cl)c5F)cc4)c3C2=O)C(=O)N1 (some centres unmarked) [Compound 7, (3’R,4’S,5’R)-6”-Chloro-4’-(3-Chloro-2-fluorophenyl)-N-(4-((6-((2-(2,6-dioxopiperidin-3-yl)-1,3-dioxoisoindolin-4-yl)amino)hexyl)carbamoyl)phenyl)-2”-oxodispiro[cyclohexane-1,2’-pyrrolidine-3’,3”-indoline]-5’-carboxamide] | induce degradation of MDM2 and accumulation of p53 | –
O=C1CCC(N2C(=O)c3cccc(NCCCCCCCNC(=O)c4ccc(NC(=O)[C@@H]5NC6(CCCCC6)[C@@]6(C(=O)Nc7cc(Cl)ccc76)[C@H]5c5cccc(Cl)c5F)cc4)c3C2=O)C(=O)N1 (some centres unmarked) [Compound 8, (3’R,4’S,5’R)-6”-Chloro-4’-(3-Chloro-2-fluorophenyl)-N-(4-((7-((2-(2,6-dioxopiperidin-3-yl)-1,3-dioxoisoindolin-4-yl)amino)heptyl)carbamoyl)phenyl)-2”-oxodispiro[cyclohexane-1,2’-pyrrolidine-3’,3”-indoline]-5’-carboxamide] | induce degradation of MDM2 and accumulation of p53 | times less potent than 1 in inhibition of cell growth (RS4;11 cell line; RS4;11): 10 times
O=C1CCC(N2C(=O)c3cccc(NCCOCCNC(=O)c4ccc(NC(=O)[C@@H]5NC6(CCCCC6)[C@@]6(C(=O)Nc7cc(Cl)ccc76)[C@H]5c5cccc(Cl)c5F)cc4)c3C2=O)C(=O)N1 (some centres unmarked) [Compound 9, (3’R,4’S,5’R)-6”-Chloro-4’-(3-Chloro-2-fluorophenyl)-N-(4-((2-(2-((2-(2,6-dioxopiperidin-3-yl)-1,3-dioxoisoindolin-4-yl)amino)ethoxy)ethyl)carbamoyl)phenyl)-2”-oxodispiro[cyclohexane-1,2’-pyrrolidine-3’,3”-indoline]-5’-carboxamide] | effectively induce degradation of MDM2 and accumulation of p53 | –
O=C1CCC(N2C(=O)c3cccc(NCCOCCOCCOCCNC(=O)c4ccc(NC(=O)[C@@H]5NC6(CCCCC6)[C@@]6(C(=O)Nc7cc(Cl)ccc76)[C@H]5c5cccc(Cl)c5F)cc4)c3C2=O)C(=O)N1 (some centres unmarked) [Compound 10, (3’R,4’S,5’R)-6”-Chloro-4’-(3-Chloro-2-fluorophenyl)-N-(4-((2-(2-(2-(2-((2-(2,6-dioxopiperidin-3-yl)-1,3-dioxoisoindolin-4-yl)amino)ethoxy)ethoxy)ethoxy)-ethyl)carbamoyl)phenyl)-2”-oxodispiro[cyclohexane-1,2’-pyrrolidine-3’,3”-indoline]-5’-carboxamide] | effectively induce degradation of MDM2 and accumulation of p53 | IC50 (RS4;11 cell line; Homo sapiens, RS4-11, 96 h): 4.5 nM
O=C1CCC(N2C(=O)c3cccc(CCCCCNC(=O)c4ccc(NC(=O)[C@@H]5NC6(CCCCC6)[C@@]6(C(=O)Nc7cc(Cl)ccc76)[C@H]5c5cccc(Cl)c5F)cc4)c3C2=O)C(=O)N1 (some centres unmarked) [Compound 11, (3’R,4’S,5’R)-6”-Chloro-4’-(3-Chloro-2-fluorophenyl)-N-(4-((5-(2-(2,6-dioxopiperidin-3-yl)-1,3-dioxoisoindolin-4-yl)pentyl)carbamoyl)phenyl)-2”-oxodispiro[cyclohexane-1,2’-pyrrolidine-3’,3”-indoline]-5’-carboxamide] | – | times less potent than 1 in inhibition of cell growth (RS4;11 cell line; RS4;11): 3 times
O=C1CCC(N2Cc3c(C#CCCNC(=O)c4ccc(NC(=O)[C@@H]5NC6(CCCCC6)[C@@]6(C(=O)Nc7cc(Cl)ccc76)[C@H]5c5cccc(Cl)c5F)cc4)cccc3C2=O)C(=O)N1 (some centres unmarked) [Compound 15, (3’R,4’S,5’R)-6”-Chloro-4’-(3-chloro-2-fluorophenyl)-N-(4-((4-(2-(2,6-dioxopiperidin-3-yl)-1-oxoisoindolin-4-yl)but-3-yn-1-yl)carbamoyl)phenyl)-2”-oxodispiro[cyclohexane-1,2’-pyrrolidine-3’,3”-indoline]-5’-carboxamide] | – | times less potent than MD-224 in inhibition of cell growth (RS4;11 cell line; RS4;11): 2 times
O=C1CCC(N2Cc3c(C#CCCCNC(=O)c4ccc(NC(=O)[C@H]5NC6(CCCCC6)[C@]6(C(=O)Nc7cc(Cl)ccc76)[C@@H]5c5cccc(Cl)c5F)cc4)cccc3C2=O)C(=O)N1 (some centres unmarked) [Compound 21, (3’S,4’R,5’S)-6”-Chloro-4’-(3-chloro-2-fluorophenyl)-N-(4-((5-(2-(2,6-dioxopiperidin-3-yl)-1-oxoisoindolin-4-yl)pent-4-yn-1-yl)carbamoyl)phenyl)-2”-oxodispiro[cyclohexane-1,2’-pyrrolidine-3’,3”-indoline]-5’-carboxamide] | fails to induce any MDM2 degradation | activity in inhibition of cell growth (in words) (RS4;11 cell line; RS4;11): minimal activity
CN1C(=O)CCC(N2Cc3c(C#CCCCNC(=O)c4ccc(NC(=O)[C@@H]5NC6(CCCCC6)[C@@]6(C(=O)Nc7cc(Cl)ccc76)[C@H]5c5cccc(Cl)c5F)cc4)cccc3C2=O)C1=O (some centres unmarked) [Compound 22, (3’R,4’S,5’R)-6”-Chloro-4’-(3-chloro-2-fluorophenyl)-N-(4-((5-(2-(1-methyl-2,6-dioxopiperidin-3-yl)-1-oxoisoindolin-4-yl)pent-4-yn-1-yl)carbamoyl)phenyl)-2”-oxodispiro[cyclohexane-1,2’-pyrrolidine-3’,3”-indoline]-5’-carboxamide] | completely inactive in inducing MDM2 degradation | times less potent than MD-224 in inhibition of cell growth (RS4;11 cell line; RS4;11): > 100 times
CNC(=O)c1ccc(NC(=O)[C@@H]2NC3(CCCCC3)[C@@]3(C(=O)Nc4cc(Cl)ccc43)[C@H]2c2cccc(Cl)c2F)cc1 [MI-1242] | inducing accumulation of both MDM2 and p53 | –
(3’R,4’S,5’R)-6”-Chloro-4’-(3-Chloro-2-fluorophenyl)-N-(4-((5-(2-(2,6-dioxopiperidin-3-yl)-1-oxoisoindolin-5-yl)pent-4-yn-1-yl)carbamoyl)phenyl)-2”-oxodispiro[cyclohexane-1,2’-pyrrolidine-3’,3”-indoline]-5’-carboxamide [Compound 16] | effectively induce degradation of MDM2 and accumulation of p53 | times less potent than MD-224 in inhibition of cell growth (RS4;11 cell line; RS4;11): 3 times; IC50 (RS4;11 cell line): 5 ± 2 nM
(3’R,4’S,5’R)-6”-Chloro-4’-(3-chloro-2-fluorophenyl)-N-(4-((4-((2-(2,6-dioxopiperidin-3-yl)-1-oxoisoindolin-4-yl)amino)butyl)carbamoyl)phenyl)-2”-oxodispiro[cyclohexane-1,2’-pyrrolidine-3’,3”-indoline]-5’-carboxamide [Compound 12] | – | times more potent than 1 in inhibition of cell growth (RS4;11 cell line; RS4;11): twice as potent as 1; IC50 (RS4;11 cell line): 5 ± 5 nM
